Values of other authors, collected in PubChem BioAssay AID1259409 (Chemical Carcinogenesis Research Information System (CCRIS), 2018).

System: rodent chemically induced tumor inhibition, incidence and multiplicity
Test: CCRIS tumor inhibitor studies

**Q.** For `Cc1cc(C(C)(C)C)c(O)c(C(C)(C)C)c1`, which “tumour outcome (control, treated, inhibition, significance)” value (Carcinogen: 2-ACETYLAMINOFLUORENE, 53-96-3, Dose [Inhibitor]: 0, 3000 PPM IN DIET CONCURRENTLY WITH CARCINOGEN FOR STUDY DURATION (STUDY DURATION: 76 WK), Route [Inhibitor]: ORAL, Species: RAT, Strain/Sex: F344/MALE, Target Tissue: Type of Lesion: LIVER: HEPATOCELLULAR TUMOR, Dose [Carcinogen]: 50 PPM IN DIET FOR 76 WK) is on record?
**A.** 20/20 (100%), 18/18 (100%), 0%, not calculated

**Q.** And the outcome (Carcinogen: 2-ACETYLAMINOFLUORENE, 53-96-3, Dose [Inhibitor]: 0, 6000 PPM IN DIET CONCURRENTLY WITH CARCINOGEN FOR STUDY DURATION (STUDY DURATION: 76 WK), Route [Inhibitor]: ORAL, Species: RAT, Strain/Sex: F344/MALE, Target Tissue: Type of Lesion: LIVER: HEPATOCELLULAR CARCINOMA, Dose [Carcinogen]: 50 PPM IN DIET FOR 76 WK)?
**A.** 4.8, 0.7, 85%, p<0.05

**Q.** And the “tumour outcome (control, treated, inhibition, significance)” value (Carcinogen: 2-ACETYLAMINOFLUORENE, 53-96-3, Dose [Inhibitor]: 0, 6000 PPM IN DIET CONCURRENTLY WITH CARCINOGEN FOR STUDY DURATION (STUDY DURATION: 76 WK), Route [Inhibitor]: ORAL, Species: RAT, Strain/Sex: F344/MALE, Target Tissue: Type of Lesion: LIVER: HEPATOCELLULAR TUMOR, Dose [Carcinogen]: 50 PPM IN DIET FOR 76 WK)?
**A.** 20/20 (100%), 19/19 (100%), 0%, not calculated

**Q.** And the “tumour outcome (control, treated, inhibition, significance)” value (Carcinogen: 7,12-DIMETHYLBENZ(A)ANTHRACENE, 57-97-6, Dose [Inhibitor]: 0.3% IN DIET FROM WEANING ONWARD (STUDY DURATION: 6 MO AFTER CARCINOGEN ADMINISTRATION), Route [Inhibitor]: ORAL, Species: RAT, Strain/Sex: SPRAGUE-DAWLEY/FEMALE, Target Tissue: Type of Lesion: MAMMARY GLAND: ADENOCARCINOMA, Dose [Carcinogen]: 10 MG/RAT IN 1 ML STRIPPED CORN OIL, SINGLE DOSE ON D 50 FOLLOWING 24 HR FASTING PERIOD, Promoter: NONE USED)?
**A.** 100%, 55%, 45%, not calculated

**Q.** And the “tumour outcome (control, treated, inhibition, significance)” value (Carcinogen: 7,12-DIMETHYLBENZ(A)ANTHRACENE, 57-97-6, Dose [Inhibitor]: 2500 MG/KG IN DIET STARTING 1 WK AFTER CARCINOGEN AND CONTINUING FOR 30 WK (STUDY DURATION: 30 WK), Route [Inhibitor]: ORAL, Species: RAT, Strain/Sex: SPRAGUE-DAWLEY/FEMALE, Target Tissue: Type of Lesion: MAMMARY GLAND: TUMOR, Dose [Carcinogen]: 8 MG IN 1 ML SESAME OIL ADMINISTERED ONCE, Promoter: NONE USED)?
**A.** 88%, 68%, 23%, not significant

**Q.** What about the “tumour outcome (control, treated, inhibition, significance)” value (Carcinogen: 7,12-DIMETHYLBENZ(A)ANTHRACENE, 57-97-6, Dose [Inhibitor]: 5000 MG/KG IN DIET STARTING 1 WK AFTER CARCINOGEN AND CONTINUING FOR 30 WK (STUDY DURATION: 30 WK), Route [Inhibitor]: ORAL, Species: RAT, Strain/Sex: SPRAGUE-DAWLEY/FEMALE, Target Tissue: Type of Lesion: MAMMARY GLAND: TUMOR, Dose [Carcinogen]: 8 MG IN 1 ML SESAME OIL ADMINISTERED ONCE, Promoter: NONE USED) of the same compound?
**A.** 88%, 72%, 18%, not significant

**Q.** And the “tumour outcome (control, treated, inhibition, significance)” value (Carcinogen: 7,12-DIMETHYLBENZ(A)ANTHRACENE, 57-97-6, Dose [Inhibitor]: 5000 MG/KG IN DIET STARTING 2 WK BEFORE UNTIL 1 WK AFTER CARCINOGEN ADMINISTRATION (STUDY DURATION: 32 WK), Route [Inhibitor]: ORAL, Species: RAT, Strain/Sex: SPRAGUE-DAWLEY/FEMALE, Target Tissue: Type of Lesion: MAMMARY GLAND: TUMOR, Dose [Carcinogen]: 8 MG IN 1 ML SESAME OIL ADMINISTERED ONCE, Promoter: NONE USED)?
**A.** 88%, 52%, 41%, p<0.01

**Q.** And the “tumour outcome (control, treated, inhibition, significance)” value (Carcinogen: 7,12-DIMETHYLBENZ[A]ANTHRACENE, 57-97-6, Dose [Inhibitor]: 0, 200 MG/KG BW/D FOR 3 WK BEGINNING 2 WK PRIOR TO CARCINOGEN DOSE (STUDY DURATION: 24 WK), Route [Inhibitor]: INTRAPERITONEAL, Species: RAT, Strain/Sex: SPRAGUE-DAWLEY/FEMALE, Target Tissue: Type of Lesion: MAMMARY GLAND: TUMOR, Dose [Carcinogen]: 33.3 MG/KG BW IN 0.25 ML CORN OIL ONCE AT 50 D OF AGE, Promoter: NONE USED)?
**A.** 91%, 56%, 38%, not calculated

**Q.** And the “tumour outcome (control, treated, inhibition, significance)” value (Carcinogen: 7,12-DIMETHYLBENZ[A]ANTHRACENE, 57-97-6, Dose [Inhibitor]: 0.3% IN DIET, DAILY BEFORE, SIMULTANEOUS WITH, AND THROUGHOUT THE EXPERIMENT, HIGH POLYUNSATURATED FAT DIET (STUDY DURAT, Route [Inhibitor]: ORAL, Species: RAT, Strain/Sex: SPRAGUE-DAWLEY/FEMALE, Target Tissue: Type of Lesion: MAMMARY GLAND: PARENCHYMAL CARCINOMA, Dose [Carcinogen]: 10 MG IN 1 ML CORN OIL AT 50 D OF AGE ONCE, Promoter: NONE USED)?
**A.** 30/30 (100%), 16/30 (53%), 47%, not calculated

**Q.** What about the “tumour outcome (control, treated, inhibition, significance)” value (Carcinogen: 7,12-DIMETHYLBENZ[A]ANTHRACENE, 57-97-6, Dose [Inhibitor]: 0.3% IN DIET, DAILY BEFORE, SIMULTANEOUS WITH, AND THROUGHOUT THE EXPERIMENT, HIGH SATURATED FAT DIET (STUDY DURATION: 3, Route [Inhibitor]: ORAL, Species: RAT, Strain/Sex: SPRAGUE-DAWLEY/FEMALE, Target Tissue: Type of Lesion: MAMMARY GLAND: PARENCHYMAL CARCINOMA, Dose [Carcinogen]: 10 MG IN 1 ML CORN OIL AT 50 D OF AGE ONCE, Promoter: NONE USED) of the same compound?
**A.** 23/30 (77%), 9/30 (30%), 60%, not calculated

**Q.** What about the “tumour outcome (control, treated, inhibition, significance)” value (Carcinogen: 7,12-DIMETHYLBENZ[A]ANTHRACENE, 57-97-6, Dose [Inhibitor]: 0.3% IN DIET, DAILY BEFORE, SIMULTANEOUS WITH, AND THROUGHOUT THE EXPERIMENT, LOW FAT DIET (STUDY DURATION: 32 WK), Route [Inhibitor]: ORAL, Species: RAT, Strain/Sex: SPRAGUE-DAWLEY/FEMALE, Target Tissue: Type of Lesion: MAMMARY GLAND: PARENCHYMAL CARCINOMA, Dose [Carcinogen]: 10 MG IN 1 ML CORN OIL AT 50 D OF AGE ONCE, Promoter: NONE USED) of the same compound?
**A.** 13/30 (43%), 10/30 (33%), 23%, not calculated

**Q.** What about the “tumour outcome (control, treated, inhibition, significance)” value (Carcinogen: 7,12-DIMETHYLBENZ[A]ANTHRACENE, 57-97-6, Dose [Inhibitor]: 0.3% IN HIGH POLYUNSATURATED FAT DIET DAILY STARTING 29 D BEFORE CARCINOGEN TREATMENT AND CONTINUING FOR THE DURATION OF, Route [Inhibitor]: ORAL, Species: RAT, Strain/Sex: SPRAGUE-DAWLEY/FEMALE, Target Tissue: Type of Lesion: MAMMARY GLAND: ADENOCARCINOMA, Dose [Carcinogen]: 10 MG IN 1 ML STRIPPED CORN OIL ONCE AT AGE 50 D, Promoter: NONE USED) of the same compound?
**A.** 100%, 55%, 45%, not calculated

**Q.** What about the “tumour outcome (control, treated, inhibition, significance)” value (Carcinogen: 7,12-DIMETHYLBENZ[A]ANTHRACENE, 57-97-6, Dose [Inhibitor]: 0.3% IN HIGH SATURATED FAT DIET DAILY STARTING 29 D BEFORE CARCINOGEN TREATMENT AND CONTINUING FOR THE DURATION OF THE S, Route [Inhibitor]: ORAL, Species: RAT, Strain/Sex: SPRAGUE-DAWLEY/FEMALE, Target Tissue: Type of Lesion: MAMMARY GLAND: ADENOCARCINOMA, Dose [Carcinogen]: 10 MG IN 1 ML STRIPPED CORN OIL ONCE AT AGE 50 D, Promoter: NONE USED) of the same compound?
**A.** 65%, 35%, 46%, not calculated

**Q.** And the “tumour outcome (control, treated, inhibition, significance)” value (Carcinogen: 7,12-DIMETHYLBENZ[A]ANTHRACENE, 57-97-6, Dose [Inhibitor]: 0.3% IN LOW FAT DIET DAILY STARTING 29 D BEFORE CARCINOGEN TREATMENT AND CONTINUING FOR THE DURATION OF THE STUDY (STUDY, Route [Inhibitor]: ORAL, Species: RAT, Strain/Sex: SPRAGUE-DAWLEY/FEMALE, Target Tissue: Type of Lesion: MAMMARY GLAND: ADENOCARCINOMA, Dose [Carcinogen]: 10 MG IN 1 ML STRIPPED CORN OIL ONCE AT AGE 50 D, Promoter: NONE USED)?
**A.** 35%, 25%, 29%, not calculated

**Q.** And the “tumour outcome (control, treated, inhibition, significance)” value (Carcinogen: 7,12-DIMETHYLBENZ[A]ANTHRACENE, 57-97-6, Dose [Inhibitor]: 1 MG APPLIED ONCE 5 MIN BEFORE DMBA (STUDY DURATION 20 WK), Route [Inhibitor]: DERMAL, Species: MOUSE, Strain/Sex: CD-1/FEMALE, Target Tissue: Type of Lesion: SKIN: PAPILLOMA, Dose [Carcinogen]: 2.56 UG APPLIED ONCE 5 MIN AFTER INHIBITOR, Promoter: 12-O-TETRADECANOYLPHORBOL-13-ACETATE, 16561-29-8)?
**A.** 80%, 58%, 28%, not calculated
